Results taken from US10323266B2, “Antimicrobial susceptibility testing device, antimicrobial susceptibility testing kit, and antimicrobial susceptibility testing method” (Hitachi, Ltd., priority 2015, dated 2019).

Test system: Escherichia coli (ATCC25922 strain)
Experiment: antimicrobial susceptibility test by an ATP method (ATP luminescence), E. coli
Format: cell-based
Details: for RLU value as compared with that at ampicillin 0 μg/mL: plateau after 2 hours
Description: In the Example, the amount of luminescence is expressed by the integration of the 60-sec photon count, and the unit is the amount of luminescence (a.u.). Since the amount of luminescence and the amount of ATP are in a proportional relationship, the increase in the amount of luminescence and the increase in the amount of ATP are to be expressed with the same implications.
Benzalkonium chloride was used as an extraction liquid, and Lucifer HS set (Kikkoman) was used as a luminescence reagent.
First, H. influenzae was cultured one night on a chocolate agar medium under a carbon dioxide gas atmosphere of 5 to 10%, and on the next day, the colony was suspended in a Mueller-Hinton (hereinafter referred to as MH) medium to produce a bacterial suspension that was prepared to 0.5 McFarland. Next, in a plate in which 50 μL each of an MH medium with the antibody of the two-fold concentration of the final concentration was previously dispensed, 50 μL each of a bacterial suspension diluted 500-fold with the MH medium was dispensed to provide an AST panel.
The first plate 21 and the second plate 22 were joined via the joint portion 23. The temperature of the ATP examination culture plate 12 was kept at 37° C. by the heater 11 and after a certain period of time, 10 μL of the bacterial culture solution of H. influenzae was dispensed from the culture vessel in the first plate 21 into the reaction vessel in the second plate 22 in which the gas atmosphere was previously prepared to 5 to 10% carbon dioxide. Subsequently, 10 μL of the extraction liquid was dispensed from the extraction liquid holding part 43 into the reaction vessel, and then 50 μL of the luminescence reagent was dispensed from the luminescence reagent holding part 46 into the reaction vessel.
After dispensing the luminescence reagent, the amount of luminescence in the reaction vessel was detected by the optical detector 13. In the optical detector 13, photo-counting was performed for 1 minute, and the detected amount of luminescence RLU (relative light unit) was used as a measure of the amount of ATP.
Example 2 was conducted in the same manner as in Example 1, except that Escherichia coli (ATCC25922 strain, hereinunder, E. coli) was used as bacterial cells, ampicillin was used as an antibody, and the gas atmosphere in the culture solution holding part 47 and the reaction vessel 44 of the ATP examination culture plate 21 was an air atmosphere. The antibody (ampicillin) concentration was 0, 2, 4, and 8 μg/mL. […] When the ampicillin concentration was 0 μg/mL, RLU increased in an exponential manner from the start of the culture until 4 hours, and thereafter ran at a constant value. […] On the other hand, when the ampicillin concentration was 4 μg/mL and 8 μg/mL, RLU increased from the start of the culture until 2 hours and thereafter ran at a constant value. The RLU value was as low as about 1/20 as compared with that at an ampicillin concentration of 0 μg/mL, and it can be seen that the growth of E. coli was suppressed by the action of ampicillin.

For `CC1(C)S[C@@H]2[C@H](NC(=O)[C@H](N)c3ccccc3)C(=O)N2[C@H]1C(=O)O` [ampicillin], the “susceptibility determination of E. coli” value (ampicillin 2 μg/mL) was “resistant”, the “RLU time course compared with ampicillin 0 μg/mL” value (ampicillin 2 μg/mL, air atmosphere, FIG. 10, 0 μg/mL: exponential increase until 4 hours, then constant) was “a similar trend was shown” and the “susceptibility determination of E. coli” value (ampicillin 4 μg/mL) was “has sensitivity”. For the same compound, the “RLU value as compared with that at ampicillin 0 μg/mL” value (ampicillin 4 μg/mL, air atmosphere, FIG. 10) was “about 1/20”, the “susceptibility determination of E. coli” value (ampicillin 8 μg/mL) was “has sensitivity” and the “RLU value as compared with that at ampicillin 0 μg/mL” value (ampicillin 8 μg/mL, air atmosphere, FIG. 10) was “about 1/20”. For the same compound, the “concentration at which E. coli has sensitivity” value (tested 0, 2, 4 and 8 μg/mL, ATP luminescence) was no less than 4 µg/mL.
